Reference: US9260504B2, “N- and C-terminal substituted antagonistic analogs of GH-RH” (University of Miami, priority 2008, dated 2016)
Marks after values point to notes of the source that are not given here.

Assays:
Format in all cases: in vivo
[1] = tested on: Panc-1 human pancreatic cancer; assay: Panc-1 human pancreatic cancer xenografts in nude mice; details: 10 μg/day s.c. for 36 days
Description: Panc-1 cancers were transplanted s.c. into both flank areas of 60 female nude mice, and allowed to grow for 105 days before starting the treatment with GH-RH antagonists. The mice were randomly assigned into 3 experimental groups with 8 animals in each group and received single daily injections for 36 days as follows: 1. Control (vehicle solution); 2. JMR-132 (10 μg/day s.c.); 3. Peptide 11457 (10 μg/day s.c.). Tumor volumes were measured once a week. The experiment was ended on day 82 by sacrificing the mice under Isoflurane anesthesia. Resulting tumors were cleaned, weighed, and snap-frozen until further analyses. Statistical analyses of the measurement results were done by two-tailed t-test, p<0.05 being considered significant. Data are presented as the means±S.E.

[2] = tested on: H-460 human non-small cell lung cancer; assay: H-460 human non-SCLC xenografts in nude mice, Experiment 1; details: 10 μg/day s.c., 28 days; means±S.E.
Description: Male nude mice were implanted s.c. with 3 mm^3 pieces of H-460 human non-SCLC tumor tissue on both flanks. When tumors had grown to a mean volume of approximately 90 mm^3, the mice were randomly assigned into 4 experimental groups with 10 animals in each group and received single daily injections for 28 days as follows: 1. Control (vehicle solution); 2. JMR-132 (10 μg/day s.c.); 3. Peptide 1109 (10 μg/day s.c.); 4. Peptide 11111 (10 μg/day s.c.). Tumor volumes were measured once a week. The experiment was ended on day 28 by sacrificing the mice under Isoflurane anesthesia. Resulting tumors were cleaned, weighed, and snap-frozen until further analyses. Statistical analyses of the measurement results were done by two-tailed t-test, p<0.05 being considered significant. Data are presented as the means±S.E.

[3] = tested on: NCI-N87 human gastric cancer; assay: NCI-N87 human gastric cancer xenografts in nude mice; details: 10 μg/day s.c.
Description: NCI-N87 cancers were transplanted s.c. into both flank areas of 30 female nude mice. The mice were randomly assigned into 4 experimental groups with 6 to 9 animals in each group and received single daily injections for 77 days as follows: 1. Control (vehicle solution); 2. JMR-132 (10 μg/day s.c.); 3. Peptide 1109 (10 μg/day s.c.); 4. Peptide 11479 (10 μg/day s.c.). Tumor volumes were measured once a week. The experiment was ended on day 77 by sacrificing the mice under Isoflurane anesthesia. Resulting tumors were cleaned, weighed, and snap-frozen until further analyses. Statistical analyses of the measurement results were done by two-tailed t-test, p<0.05 being considered significant. Data are presented as the means±S.E.

[4] = tested on: PC-3 human hormone-independent prostate cancer; assay: PC-3 human prostate cancer xenografts in nude mice, Experiment 2; details: 10 μg/day s.c.
Description: Male nude mice were implanted s.c. with 3 mm^3 pieces of PC-3 human hormone-independent prostate cancer tissue on both flanks. When tumors reached a volume of approx. 50 mm^3, the mice were divided into 4 experimental groups with 8 to 10 animals in each group and received single daily injections for 35 days as follows: 1. Control (vehicle solution); 2. JMR-132 (10 μg/day s.c.); 3. Peptide 1109 (10 μg/day s.c.); 4. Peptide 11111 (10 μg/day s.c.); Tumor volumes were measured once a week. The experiment was ended on day 35 by sacrificing the mice under Isoflurane anesthesia. Resulting tumors were cleaned, weighed, and snap-frozen until further analyses. Statistical analyses of the measurement results were done by two-tailed t-test, p<0.05 being considered significant. Data are presented as the means±S.E.
Experiment 2 was similar to Experiment 1. Experiment 2 was started when PC-3 tumors had grown to approximately 50 mm^3 in volume. At this time, the animals were divided into 5 experimental groups with 8 animals in each group, and received single daily injections for 14 days as follows: 1. Control (vehicle solution); 2. JMR-132 (10 μg/day s.c.); 3. Peptide 1109 (5 μg/day s.c.); 4. Peptide 11109 (5 μg/day s.c.); 5. Peptide 11109 (2 μg/day s.c.). Further details of Experiment 2 are the same as for Experiment 1

[PhAc^0-Tyr^1, D-Arg^2, Cpa^6, Ala^8, Har^9, Tyr(Me)^10, His^11, Abu^15, His^20, Nle^27, D-Arg^28, Har^29]hGH-RH(1-29)NH2 [JMR-132, reference compound]
Tumor weights ([1]; end of experiment day 82): 185 ± 105 mg
Tumor growth from day 1 to day 82 (%) ([1]; means±S.E.): 1730 ± 350%
Tumor volume on day 82 (mm^3) ([1]; means±S.E.): 511 ± 221* mm^3
Effect on the growth of Panc-1 human pancreatic cancers ([1]; observed for at least 82 days): less effective
Tumor growth after 4 weeks (%) [2]: 2404 ± 604%
Effect on the growth of NCI-N87 cancers ([3]; 77 days): not effective
Number of regressing tumors ([3]; 77 days): 2
Tumor growth after 77 days (%) ([3]; 77 days, means±S.E.): 409 ± 78%
Tumor weights ([3]; day 77, means±S.E.): 407 ± 175 mg
Tumor doubling time ([3]; calculated without the regressing tumors): 40.8 ± 5.9 days
Tumor growth after 2 weeks (%) ([4]; 14 days): 432%
Inhibition (%) ([4]; tumor growth after 2 weeks): 39.61%
